Source: patent publication US20240424113A1, “CONJUGATES COMPRISING ANTIFUNGALS AND HEAT SHOCK PROTEIN 90 (HSP90) INHIBITORS AND METHODS OF USE THEREOF” (Bright Angel Therapeutics Inc., priority 2021, published 2024)
Values after ≈ are worked out from the molar mass of the structure shown.

How the values were obtained:
[1] = target: Hsp90 Nuclear Binding Domain (NBD) (Candida albicans (strain SC5314 / ATCC MYA-2876) (Yeast), UniProt P46598); experiment: Surface Plasmon Resonance (SPR) binding, C. albicans Hsp90 NBD; settings: biotinylated Hsp90 NBD on streptavidin chip, 25° C., 1:1 binding model
In short: (§1)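 Biacore S200 at 25° C; AviTag-biotinylated recombinant Hsp90 NBD captured on streptavidin chip at 2000-2500 RU. Compound dilution series run in HBS-P pH 7.4 with 2% DMSO at 40 μL/min, 60 s association and 600 s dissociation. Sensorgrams fitted to a 1:1 binding model.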

CaCl2 = experiment: Antifungal sensitivity testing (broth microdilution MIC); assay type: cell-based; settings: 96-well broth microdilution
In short: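 Broth microdilution MIC per a modified published protocol; compounds dissolved in DMSO, fluconazole in water; duplicates in at least two independent experiments. Fungicidal activity checked by spotting MIC-plate cultures onto YPD agar, read after 24 h at 30° C.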

HepG2 cells = experiment: Mammalian cell toxicity (Cell Titer-Glo); assay type: cell-based
Experimental: Mammalian Cell Toxicity. HepG2 cells were seeded overnight at 500 cells/well in 384-well plate, then incubated with compounds (10-point concentration titration) for 48 h. Cell Titer-Glo® reagent ([…]) was added to each well and after 10-minute incubation at room temperature the luminescent signal was measured using an Envision plate reader (Perkin Elmer).

[2] = target: Hsp90 Nuclear Binding Domain (NBD) (Aspergillus fumigatus, UniProt P40292); experiment: Surface Plasmon Resonance (SPR) binding, A. fumigatus Hsp90 NBD; settings: biotinylated Hsp90 NBD on streptavidin chip, 25° C., 1:1 binding model; NB undefined
In short: as §1

Sequence of Hsp90 Nuclear Binding Domain (NBD) (Aspergillus fumigatus, UniProt P40292) (P40292 whole entry, looked up, the tested form may be a part): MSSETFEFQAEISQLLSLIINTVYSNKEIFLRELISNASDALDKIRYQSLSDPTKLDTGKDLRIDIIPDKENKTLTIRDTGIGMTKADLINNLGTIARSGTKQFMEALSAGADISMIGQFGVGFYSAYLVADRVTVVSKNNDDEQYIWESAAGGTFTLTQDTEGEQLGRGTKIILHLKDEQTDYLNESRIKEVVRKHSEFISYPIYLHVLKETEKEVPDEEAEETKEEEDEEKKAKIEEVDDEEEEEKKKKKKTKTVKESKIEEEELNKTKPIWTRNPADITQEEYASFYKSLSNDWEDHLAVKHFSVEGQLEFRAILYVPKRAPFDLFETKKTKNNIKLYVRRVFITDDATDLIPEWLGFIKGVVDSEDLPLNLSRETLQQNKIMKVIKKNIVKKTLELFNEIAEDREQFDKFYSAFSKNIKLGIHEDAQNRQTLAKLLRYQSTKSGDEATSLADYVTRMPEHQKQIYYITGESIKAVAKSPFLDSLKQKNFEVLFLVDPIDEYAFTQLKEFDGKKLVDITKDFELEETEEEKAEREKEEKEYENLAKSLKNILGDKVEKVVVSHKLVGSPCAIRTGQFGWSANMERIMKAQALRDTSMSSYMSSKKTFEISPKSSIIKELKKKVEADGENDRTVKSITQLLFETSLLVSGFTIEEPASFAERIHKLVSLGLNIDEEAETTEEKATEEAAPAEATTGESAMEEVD
Sequence of Hsp90 Nuclear Binding Domain (NBD) (Candida albicans (strain SC5314 / ATCC MYA-2876) (Yeast), UniProt P46598) (P46598 1-218 limits assumed): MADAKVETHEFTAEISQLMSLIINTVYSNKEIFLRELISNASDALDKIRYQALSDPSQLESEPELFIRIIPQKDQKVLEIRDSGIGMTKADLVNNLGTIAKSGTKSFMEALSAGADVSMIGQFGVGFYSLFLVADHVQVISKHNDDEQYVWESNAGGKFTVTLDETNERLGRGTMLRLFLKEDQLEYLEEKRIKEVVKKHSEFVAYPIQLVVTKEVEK

Row | SMILES | Kd [1] [nM] | MIC50 (CaCl2; Table 4) [µM] | MIC50 (CaCl2; Table 6) [µM] | HepG2 MIC50 (HepG2 cells; Table 5, 48 h incubation) [µM] | HepG2 MIC50 (HepG2 cells; Table 6, 48 h incubation) [µM] | Kd [2] [nM]
1 | Nc1nc2sc(C(=O)NC3CCN(CC(O)(Cn4cncn4)c4ccc(F)cc4F)CC3)cc2n(-c2ccc3c(c2)N(c2ccccc2)CCO3)c1=O (stereo not drawn) [Compound I-4, 3-amino-N-(1-(2-(2,4-difluorophenyl)-2-hydroxy-3-(1H-1,2,4-triazol-1-yl)propyl)piperidin-4-yl)-2-oxo-1-(4-phenyl-3,4-dihydro-2H-benzo[b][1,4]oxazin-6-yl)-1,2-dihydrothieno[2,3-b]pyrazine-6-carboxamide] | 28 | 0.75 (≈ 0.555 µg/mL) | 0.75 (≈ 0.555 µg/mL) | >10 | >10 | 113
2 | Nc1nc2sc(C(=O)N[C@@H]3CCN(C[C@@](O)(Cn4cncn4)c4ccc(F)cc4F)C3)cc2n(-c2ccc3c(c2)N(c2ccccc2)CCO3)c1=O [Compound I-11, 3-amino-N-((R)-1-((R)-2-(2,4-difluorophenyl)-2-hydroxy-3-(1H-1,2,4-triazol-1-yl)propyl)pyrrolidin-3-yl)-2-oxo-1-(4-phenyl-3,4-dihydro-2H-benzo[b][1,4]oxazin-6-yl)-1,2-dihydrothieno[2,3-b]pyrazine-6-carboxamide] | 0.8 | 2.5 (≈ 1.81 µg/mL) | 2.5 (≈ 1.81 µg/mL) | – | 2.4 | 24.8
3 | Cc1ccc(-n2c(=O)c(N)nc3sc(C(=O)NC4CCN(CC(O)(Cn5cncn5)c5ccc(F)cc5F)CC4)cc32)cc1Oc1ccccc1 (stereo not drawn) [Compound I-12, 3-amino-N-(1-(2-(2,4-difluorophenyl)-2-hydroxy-3-(1H-1,2,4-triazol-1-yl)propyl)piperidin-4-yl)-1-(4-methyl-3-phenoxyphenyl)-2-oxo-1,2-dihydrothieno[2,3-b]pyrazine-6-carboxamide] | 146 | 0.18 (≈ 0.128 µg/mL) | 0.18 (≈ 0.128 µg/mL) | >10 | >10 | 431
4 | Nc1nc2scc(C(=O)NC3CCN(CC(O)(Cn4cncn4)c4ccc(F)cc4F)CC3)c2n(-c2ccc3c(c2)N(c2ccccc2)CCO3)c1=O (stereo not drawn) [Compound I-18, 3-amino-N-(1-(2-(2,4-difluorophenyl)-2-hydroxy-3-(1H-1,2,4-triazol-1-yl)propyl)piperidin-4-yl)-2-oxo-1-(4-phenyl-3,4-dihydro-2H-benzo[b][1,4]oxazin-6-yl)-1,2-dihydrothieno[2,3-b]pyrazine-7-carboxamide] | 459 | 20 (≈ 14.8 µg/mL) | 20 (≈ 14.8 µg/mL) | – | >50 | 741
5 | Nc1nc2sc(C(=O)NC3CCN(C[C@](O)(Cn4cncn4)c4ccc(F)cc4F)CC3)cc2n(-c2ccc3c(c2)N(c2ccccc2)CCC3)c1=O [Compound I-21, (S)-3-amino-N-(1-(2-(2,4-difluorophenyl)-2-hydroxy-3-(1H-1,2,4-triazol-1-yl)propyl)piperidin-4-yl)-2-oxo-1-(1-phenyl-1,2,3,4-tetrahydroquinolin-7-yl)-1,2-dihydrothieno[2,3-b]pyrazine-6-carboxamide] | 6.7 | 0.085 (≈ 0.0627 µg/mL) | 0.09 (≈ 0.0664 µg/mL) | >50 | >50 | 37.3
6 | Nc1nc2sc(C(=O)NC3CCN(C[C@](O)(Cn4cncn4)c4ccc(F)cc4F)CC3)cc2n(-c2ccc3ccn(-c4ccccc4)c3c2)c1=O [Compound I-23, (S)-3-amino-N-(1-(2-(2,4-difluorophenyl)-2-hydroxy-3-(1H-1,2,4-triazol-1-yl)propyl)piperidin-4-yl)-2-oxo-1-(1-phenyl-1H-indol-6-yl)-1,2-dihydrothieno[2,3-b]pyrazine-6-carboxamide] | 28.6 | 0.35 (≈ 0.253 µg/mL) | 0.35 (≈ 0.253 µg/mL) | >50 | >50 | 46
7 | Nc1nc2sc(C(=O)NC[C@H]3CO[C@](Cn4cncn4)(c4ccc(F)cc4F)C3)cc2n(-c2ccc3c(c2)N(c2ccccc2)CCO3)c1=O [Compound I-27, N-(((3S,5S)-5-((1H-1,2,4-triazol-1-yl)methyl)-5-(2,4-difluorophenyl)tetrahydrofuran-3-yl)methyl)-3-amino-2-oxo-1-(4-phenyl-3,4-dihydro-2H-benzo[b][1,4]oxazin-6-yl)-1,2-dihydrothieno[2,3-b]pyrazine-6-carboxamide] | 9.2 | 2.5 (≈ 1.74 µg/mL) | 2.5 (≈ 1.74 µg/mL) | – | >10 | 13.4
8 | CC1(NC(=O)c2cc3c(nc(N)c(=O)n3-c3ccc4c(c3)N(c3ccccc3)CCO4)s2)CCN(CC(O)(Cn2cncn2)c2ccc(F)cc2F)CC1 (stereo not drawn) [Compound I-31, 3-amino-N-(1-(2-(2,4-difluorophenyl)-2-hydroxy-3-(1H-1,2,4-triazol-1-yl)propyl)-4-methylpiperidin-4-yl)-2-oxo-1-(4-phenyl-3,4-dihydro-2H-benzo[b][1,4]oxazin-6-yl)-1,2-dihydrothieno[2,3-b]pyrazine-6-carboxamide] | 0.3 | 1 (≈ 0.754 µg/mL) | 1 (≈ 0.754 µg/mL) | 4.6 | 4.6 | 2.3
9 | Nc1nc2sc(C(=O)NC3CCN(CC4COC(Cn5cncn5)(c5ccc(F)cc5F)C4)CC3)cc2n(-c2ccc3c(c2)N(c2ccccc2)CCO3)c1=O (stereo not drawn) [Compound I-32, N-(1-((5-((1H-1,2,4-triazol-1-yl)methyl)-5-(2,4-difluorophenyl)tetrahydrofuran-3-yl)methyl)piperidin-4-yl)-3-amino-2-oxo-1-(4-phenyl-3,4-dihydro-2H-benzo[b][1,4]oxazin-6-yl)-1,2-dihydrothieno[2,3-b]pyrazine-6-carboxamide] | 3.6 | 2.5 (≈ 1.95 µg/mL) | 2.5 (≈ 1.95 µg/mL) | – | 8.2 | 50.5
10 | Nc1nc2sc(C(=O)N[C@@H]3CCN(CCC(O)(Cn4cncn4)c4ccc(F)cc4F)C3)cc2n(-c2ccc3c(c2)N(c2ccccc2)CCO3)c1=O (stereo partly drawn) [Compound I-36, 3-amino-N-((3R)-1-(3-(2,4-difluorophenyl)-3-hydroxy-4-(1H-1,2,4-triazol-1-yl)butyl)pyrrolidin-3-yl)-2-oxo-1-(4-phenyl-3,4-dihydro-2H-benzo[b][1,4]oxazin-6-yl)-1,2-dihydrothieno[2,3-b]pyrazine-6-carboxamide] | 2.1 | 8 (≈ 5.92 µg/mL) | 8 (≈ 5.92 µg/mL) | – | 1.9 | 3.7
11 | Nc1nc2sc(CNC3CCN(CC(O)(Cn4cncn4)c4ccc(F)cc4F)CC3)cc2n(-c2ccc3c(c2)N(c2ccccc2)CCO3)c1=O (stereo not drawn) [Compound I-47, 3-amino-6-(((1-(2-(2,4-difluorophenyl)-2-hydroxy-3-(1H-1,2,4-triazol-1-yl)propyl)piperidin-4-yl)amino)methyl)-1-(4-phenyl-3,4-dihydro-2H-benzo[b][1,4]oxazin-6-yl)thieno[2,3-b]pyrazin-2(1H)-one] | 289 | 1 (≈ 0.726 µg/mL) | 1 (≈ 0.726 µg/mL) | 4.4 | 4.4 | 550
12 | CC1(NC(=O)c2cc3c(nc(N)c(=O)n3-c3ccc4c(c3)N(c3ccccc3)CCO4)s2)CCN(C[C@](O)(Cn2cncn2)c2ccc(F)cc2F)CC1 [Compound I-53, (S)-3-amino-N-(1-(2-(2,4-difluorophenyl)-2-hydroxy-3-(1H-1,2,4-triazol-1-yl)propyl)-4-methylpiperidin-4-yl)-2-oxo-1-(4-phenyl-3,4-dihydro-2H-benzo[b][1,4]oxazin-6-yl)-1,2-dihydrothieno[2,3-b]pyrazine-6-carboxamide] | 1.3 | 1.5 (≈ 1.13 µg/mL) | 1.5 (≈ 1.13 µg/mL) | 4 | 4 | 23.6
13 | Nc1nc2sc(-c3noc(C(=O)NN4CCN(CC(O)(Cn5cncn5)c5ccc(F)cc5F)CC4)n3)cc2n(-c2ccc3c(c2)N(c2ccccc2)CCO3)c1=O (stereo not drawn) [Compound I-54, 3-(3-amino-2-oxo-1-(4-phenyl-3,4-dihydro-2H-benzo[b][1,4]oxazin-6-yl)-1,2-dihydrothieno[2,3-b]pyrazin-6-yl)-N-(4-(2-(2,4-difluorophenyl)-2-hydroxy-3-(1H-1,2,4-triazol-1-yl)propyl)piperazin-1-yl)-1,2,4-oxadiazole-5-carboxamide] | 73.5 | 0.6 (≈ 0.485 µg/mL) | 0.6 (≈ 0.485 µg/mL) | >10 | >10 | 339
14 | COC(=O)c1c(C(=O)NC2CCN(CC(O)(Cn3cncn3)c3ccc(F)cc3F)CC2)sc2nc(N)c(=O)n(-c3ccc4c(c3)N(c3ccccc3)CCO4)c12 (stereo not drawn) [Compound I-55, methyl 3-amino-6-((1-(2-(2,4-difluorophenyl)-2-hydroxy-3-(1H-1,2,4-triazol-1-yl)propyl)piperidin-4-yl)carbamoyl)-2-oxo-1-(4-phenyl-3,4-dihydro-2H-benzo[b][1,4]oxazin-6-yl)-1,2-dihydrothieno[2,3-b]pyrazine-7-carboxylate] | 318 | 9 (≈ 7.18 µg/mL) | 9 (≈ 7.18 µg/mL) | – | >10 | 314
